Measured values from the supplement of paper PMC4862054.

Columns and labels:
Experiment in all cases: normalised response (% of control), CellTiter-Glo; higher = more viable cells (100 = DMSO, 0 = benzethonium chloride kill control)
Conditions in all cases: incubation time: 72 h
[1] = tested on: HCC1143
Summary of the method: (§1)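 Breast cancer cell lines (20 µl suspension) were seeded into 384-well plates holding compound at 5 concentrations in 10-fold steps over a compound-specific 10,000-fold range, then incubated 72 h. CellTox Green fluorescence (485/520 nm) was read first, then CellTiter-Glo luminescence after 10 min at room temperature. Each plate was normalised to 0.1 % DMSO (100) and a positive kill control (0). Each value is the normalised signal at a single concentration of the series.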

[2] = tested on: HCC1937
Summary of the method: as §1

[3] = tested on: MDA-MB-231
Summary of the method: as §1

[4] = tested on: Hs578T
Summary of the method: as §1

[5] = tested on: HDQ-P1
Summary of the method: as §1

[6] = tested on: BT-549
Summary of the method: as §1

[7] = tested on: CAL-120
Summary of the method: as §1

[8] = tested on: MFM-223
Summary of the method: as §1

[9] = tested on: CAL-148
Summary of the method: as §1

[10] = tested on: MCF-10A
Summary of the method: as §1

[11] = tested on: CAL-51
Summary of the method: as §1

[12] = tested on: HCC1599
Summary of the method: as §1

[13] = tested on: CAL-85-1
Summary of the method: as §1

[14] = tested on: MDA-MB-436
Summary of the method: as §1

[15] = tested on: MDA-MB-468
Summary of the method: as §1

[16] = tested on: DU-4475
Summary of the method: as §1

[17] = tested on: BT-474
Summary of the method: as §1

[18] = tested on: MDA-MB-453
Summary of the method: as §1

[19] = tested on: SK-BR-3
Summary of the method: as §1

Structure (SMILES)	normalised response [1]	normalised response [2]	normalised response [3]	normalised response [4]	normalised response [5]	normalised response [6]	normalised response [7]	normalised response [8]	normalised response [9]	normalised response [10]	normalised response [11]	normalised response [12]	normalised response [13]	normalised response [14]	normalised response [15]	normalised response [16]	normalised response [17]	normalised response [18]	normalised response [19]
O=C(Nc1cccnc1)N1CCC(Cc2cccc(Oc3ccc(C(F)(F)F)cn3)c2)CC1 [PF-3845] (10 nM)	106%	103%	109%	108%	97.3%	96.7%	105%	119%	112%	115%	88.9%	96.9%	103%	100%	101%	105%	110%	106%	96.7%
CNC(=O)c1cccc(-c2ccc3c(N4CCOC[C@@H]4C)nc(N4CCOC[C@@H]4C)nc3n2)c1 [AZD2014] (1 nM)	104%	101%	108%	101%	98%	102%	98.4%	106%	111%	114%	125%	92%	95%	89.7%	103%	99.4%	97.5%	105%	115%
CCOC(=O)CCNc1cc(N2CCc3ccccc3CC2)nc(-c2ccccn2)n1 [GSK-J4] (100 nM)	97.6%	95.2%	92.8%	105%	93.1%	93.8%	110%	103%	101%	97.3%	97.8%	95.5%	100%	92.6%	95.5%	95.3%	95.7%	84.8%	68.8%
c1ccc2c(CCNc3ccc(Nc4ccncc4)cc3)c[nH]c2c1 [Serdemetan] (10 nM)	93.4%	99.4%	97.3%	96.5%	98.7%	105%	91.5%	98.3%	92%	100%	105%	115%	106%	97.9%	95.2%	102%	87.6%	105%	94.3%
CN(C)CCOc1ccc(/C(=C(/CCCl)c2ccccc2)c2ccccc2)cc1 [Toremifene] (10 nM)	98.2%	98.6%	96.8%	103%	99.2%	99%	105%	106%	109%	105%	130%	91.3%	95.1%	97.1%	103%	108%	101%	120%	117%
CC(C)C[C@@H](C(=O)N[C@H](C(=O)OC1CCCC1)c1ccccc1)[C@H](O)C(=O)NO [Tosedostat] (10 nM)	97.2%	87.9%	94.4%	94.4%	99.8%	88.2%	92.6%	104%	111%	102%	125%	114%	92.2%	96.1%	78.5%	99.5%	95.3%	93.9%	113%
CNC(=O)c1ccc(N2C(=S)N(c3ccc(C#N)c(C(F)(F)F)c3)C(=O)C23CCC3)cc1F [RD162] (10 nM)	105%	97%	98.2%	95.3%	96.3%	93.8%	95.5%	102%	107%	105%	102%	99.3%	101%	93.7%	105%	102%	103%	104%	94.4%
COC(=O)c1ccc2c(c1)NC(=O)/C2=C(\Nc1ccc(N(C)C(=O)CN2CCN(C)CC2)cc1)c1ccccc1 [Nintedanib] (10 nM)	97%	97.3%	91.2%	104%	104%	100%	100%	103%	105%	107%	125%	133%	95%	104%	102%	103%	96.9%	115%	115%
O=C(/C=C/c1cccc(S(=O)(=O)Nc2ccccc2)c1)NO [Belinostat] (10 nM)	99.2%	94.8%	98.5%	94.3%	88.5%	101%	96.9%	88.5%	85.7%	96%	80.2%	96.5%	93.8%	91%	105%	97.2%	98.2%	97.1%	68.9%
CNC(=O)c1ccc(N2C(=S)N(c3ccc(C#N)c(C(F)(F)F)c3)C(=O)C2(C)C)cc1F [Enzalutamide] (1 nM)	98.5%	103%	95%	103%	100%	107%	98.8%	99.6%	102%	105%	109%	108%	95.6%	102%	101%	98.9%	97.4%	103%	108%
CCn1c(-c2nonc2N)nc2cnc(Oc3cccc(NC(=O)c4ccc(OCCN5CCOCC5)cc4)c3)cc21 (1 nM)	103%	104%	102%	99.5%	104%	108%	41.8%	96.8%	98.6%	102%	114%	103%	101%	104%	95.6%	94.3%	95.1%	101%	102%
CNC(=O)c1cc(Oc2ccc(NC(=O)Nc3ccc(Cl)c(C(F)(F)F)c3)c(F)c2)ccn1 [Regorafenib] (10 nM)	100%	96%	95.2%	101%	102%	106%	94%	101%	109%	113%	108%	108%	100%	104%	97.9%	105%	111%	117%	110%
COc1cc2c(NC3CCN(C(C)C)CC3)nc(N3CCC(F)(F)CC3)nc2cc1OCCCN1CCCC1 [UNC0642] (10 nM)	95.3%	98.2%	95.3%	107%	97.4%	97.7%	95.2%	88.4%	88.6%	102%	86.3%	96.5%	96.6%	101%	89%	94.6%	97.7%	92%	108%
Cc1[nH]c2ccccc2c1CCNCc1ccc(/C=C/C(=O)NO)cc1 [Panobinostat] (1 nM)	104%	96.5%	102%	98.7%	102%	101%	101%	100%	101%	99.9%	118%	100%	104%	107%	103%	99.1%	103%	92.8%	–
COc1cc2ncnc(Nc3ccc(F)c(Cl)c3)c2cc1OCCCN1CCOCC1 [Gefitinib] (10 nM)	98.1%	98.3%	98%	103%	97%	98.6%	96.2%	108%	105%	95.6%	103%	89.5%	96.6%	103%	95.9%	100%	100%	108%	107%
O=P1(N(CCCl)CCCl)NCCCO1 (stereo not drawn) [Cyclophosphamide] (40 nM)	105%	95.6%	99.9%	106%	98.4%	97.9%	96.8%	100%	104%	102%	79.3%	98.2%	98.7%	99.1%	101%	106%	100%	106%	91%
Cc1ccc(NC(=O)c2ccc(CN3CCN(C)CC3)cc2)cc1Nc1nc(-c2cccnc2)cs1 [Masitinib] (10 nM)	98.4%	97.4%	100%	98.8%	93.6%	101%	91.5%	105%	108%	104%	99.4%	93.8%	99.7%	101%	108%	102%	102%	113%	–
O=C(Nc1ccncc1)C(=O)c1cn(Cc2ccc(Cl)cc2)c2ccccc12 [Indibulin] (10 nM)	100%	98.2%	104%	104%	94.1%	93.5%	92.6%	107%	109%	102%	86.5%	93.4%	99.9%	99.2%	102%	105%	112%	95%	–
COCC1(CO)C(=O)C2CCN1CC2 (stereo not drawn) [Prima-1 Met] (10 nM)	103%	99%	103%	103%	95.1%	93.7%	92.4%	103%	102%	107%	124%	92.7%	103%	101%	102%	109%	103%	111%	–
Cc1cc(Nc2cc(CN3CCOCC3)c3nc(C)c(Cc4ccc(Cl)cc4F)n3n2)n[nH]1 [Gandotinib] (10 nM)	102%	94.2%	102%	99.5%	106%	100%	98.2%	105%	110%	108%	92%	118%	101%	104%	101%	104%	106%	99.3%	–
C=C1C[C@@H]2[C@H](CC[C@]3(C)C(=O)CC[C@@H]23)[C@@]2(C)C=CC(=O)C=C12 [Exemestane] (10 nM)	99.7%	103%	106%	99.7%	98.9%	98%	98%	108%	109%	116%	70.2%	99.1%	108%	104%	109%	106%	21%	116%	–
